{"source": "patent US20230398130A1", "about": "“METHODS AND COMPOSITIONS FOR DIFFERENTIATING STEM CELLS” (Massachusetts Institute of Technology, priority 2020, published 2023)", "key": {"[1]": {"tested_on": "Paneth cells", "assay": "In vivo oral gavage of KPT-330 every other day for two weeks: histological counting of Paneth, Olfm4+ stem and PAS+ goblet cells in small intestine", "set-up": "species or system C57BL/6 wild-type mice", "description": "Applicants tracked animal weight every other day, and at day 14 collected the proximal and distal thirds of the small intestine for histological quantification of Paneth, stem, and goblet populations (FIG. 26A). […] Samples were prepared for histology by the 'swiss-roll' technique, and following staining, were blinded and randomized before manual counting of well-preserved features. […] Animal study. 8-10 weeks old wild type C57BL/6NCrl male mice (#027) were purchased from Charles River. […] All animal studies are approved by the Committee on Animal Care (CAC) at Massachusetts Institute of Technology. Histology. The small intestine (SI) was collected from mice and divided into three parts. Only proximal and distal SI were kept in PBS, and medial SI was discarded. Each SI was opened longitudinally and washed in PBS. […] Fixed tissues were embedded in paraffin, and […] sections were mounted on slides. […] For McManus Periodic Acid Schiff (PAS) reaction, slides were deparaffinized, oxidized in periodic acid, and stained with Schiff reagent (Poly Scientific, s272) followed by counterstaining with Harris Hematoxylin. Slides were scanned by Aperio Slide Scanner (Leica) and cells were counted on Aperio eSlide Manager. Slides were randomized before counting, and all cell types were counted in all well-preserved crypts along the longitudinal crypt-villus axis. […] Because Paneth cell number and quality is known to physiologically change along the length of the small intestine, and diseases associated with Paneth cells most frequently present distally^56, Applicants sought to profile how XPO1 inhibition may differentially affect proximal and distal small intestine. Applicants tracked animal weight every other day and collected the proximal and distal thirds of the small intestine at day 14 for histological quantification of Paneth, stem, and goblet populations (FIG. 61A). […] Paneth cells were counted within well-preserved crypts-with at least 30 crypts quantified per animal (representative images FIG. 62C) and the counts were averaged. […] Animal study. 8-10 weeks old wild type C57BL/6NCrl male mice (#027) were purchased from Charles River. […] All animal studies are approved by the Committee on Animal Care (CAC) at Massachusetts Institute of Technology. Histology. The small intestine (SI) was collected from mice and divided into three parts. Only proximal and distal SI were kept in PBS, and medial SI was discarded. Each SI was opened longitudinally and washed in PBS. […] Fixed tissues were embedded in paraffin, and […] sections were mounted on slides. […] For McManus Periodic Acid Schiff (PAS) reaction, slides were deparaffinized, oxidized in periodic acid, and stained with Schiff reagent (Poly Scientific, s272) followed by counterstaining with Harris Hematoxylin. Slides were scanned by Aperio Slide Scanner (Leica) and cells were counted on Aperio eSlide Manager. Slides were blinded and randomized before counting, and all cell types were counted in all well-preserved crypts along the longitudinal crypt-villus axis (Paneth cell: >30 crypts, Olfm4+ cell: ≥17 crypts, Goblet cell: >15 villi, per sample). For the Goblet cell images, the samples that include less than 15 well-preserved crypt-villus axes were excluded, which was predetermined."}, "[2]": {"assay": "In vivo oral gavage of KPT-330 every other day for two weeks: body weight", "set-up": "species or system C57BL/6 wild-type mice", "description": "Following a similar protocol as previously reported for SINE treatment in the context of cancer (Arango et al., 2017; Azmi et al., 2013; Hing et al., 2016; Zheng et al., 2014), KPT-330 was administered at a dose 10 mg/kg via oral gavage every other day over a two-week span in C57BL/6 wild-type mice, and body weight was monitored for any clear toxicity. […] Given animal weight loss on the standard chemotherapeutic dosage regimen, and additional evidence that sustained dosage of SINEs adversely impacts T cell populations (Tyler et al., 2017), Applicants sought to explore dosing regimens well below 10 mg/kg, to see if a pro-Paneth phenotype may exist below potential toxicities. […] Applicants tracked animal weight every other day, and at day 14 collected the proximal and distal thirds of the small intestine for histological quantification of Paneth, stem, and goblet populations (FIG. 26A). […] Paneth cells were counted within well preserved crypts, with at minimum 30 crypts quantified per animal (representative images FIG. 30C) and then averaged to get mean Paneth cells per crypt in distal and proximal thirds of the small intestine. […] Applicants additionally quantified the abundance of Olfm4+ stem cells as well as PAS+ goblet cells within the same animals to ascertain whether the effect of SINE treatment was restricted to the Paneth cell compartment (representative images FIG. 30D,E). […]"}}, "note": "Entries after “also recorded” stand apart in the source; their conditions may differ."}
{"smiles": "O=C(/C=C\\n1cnc(-c2cc(C(F)(F)F)cc(C(F)(F)F)c2)n1)NNc1cnccn1", "note": "[KPT-330]", "values": [{"measurement": "Olfm4+ stem cells per crypt", "setting": "[1]; 0.01 mg/kg, distal SI, day 14", "result": "significant increase in Olfm4+ stem cells"}, {"measurement": "fraction of crypts with more Paneth cells than the vehicle 90th percentile cutoff (5 per crypt)", "setting": "[1]; 0.01 mg/kg, distal small intestine", "result": 27.9, "unit": "%"}, {"measurement": "Paneth cell abundance per crypt", "setting": "[1]; 0.01 mg/kg, distal small intestine, day 14", "result": "significant increases in Paneth cell abundance"}, {"measurement": "Paneth cell abundance per crypt", "setting": "[1]; 0.01 mg/kg, proximal small intestine, day 14", "result": "significant increases in Paneth cell abundance"}, {"measurement": "fraction of crypts with more Paneth cells than the vehicle 90th percentile cutoff (4 per crypt)", "setting": "[1]; 0.2 mg/kg, proximal small intestine", "result": 15.5, "unit": "%"}, {"measurement": "Paneth cell abundance per crypt", "setting": "[1]; 0.2 mg/kg, proximal small intestine, day 14", "result": "significant increases in Paneth cell abundance"}, {"measurement": "PAS+ goblet cell population", "setting": "[1]; 0.01-0.2 mg/kg, proximal and distal SI, day 14", "result": "did not overserve any significant changes; also recorded: did not identify any significant changes"}, {"measurement": "additional Paneth cells per crypt in vivo", "setting": "[1]; low dose KPT-330", "result": "0.5-1 Paneth cells per crypt"}, {"measurement": "body weight", "setting": "[2]; 0.01, 0.05 or 0.2 mg/kg oral gavage every other day", "result": "no significant changes in animal weight at any dose"}, {"measurement": "body weight", "setting": "[2]; 10 mg/kg oral gavage every other day", "result": "significant weight loss indicative of toxicity"}]}
